# Assay results published in the OligoGym collection.
# Values joined by “and” are separate entries in the source; they are usually repeats but may differ in a detail not shown here. Identical values can stand only once. After the bases stand the sugars from the 5' end (letter, count) and the backbone: PS all phosphorothioate, else s phosphorothioate and o phosphodiester by linkage. Methylation of C is not given here. e = 2'-O-(2-methoxyethyl) (MOE); k = constrained ethyl (cEt); d = 2'-deoxy (DNA)
# Molecular target: IRF4
# Settings: ASO, MM.1R, 0.074 µM
row,Sequence,target mRNA inhibition [%]
1,"GTGATGTCAGGTTTTC (sugars kkdddddddddekeke, PS)",14

# Same assay, conditions: ASO, MM.1R, 0.222 µM
row,Sequence,target mRNA inhibition [%]
1,"GTGATGTCAGGTTTTC (sugars kkdddddddddekeke, PS)",16

# Same assay, conditions: ASO, MM.1R, 0.666 µM
row,Sequence,target mRNA inhibition [%]
1,"GTGATGTCAGGTTTTC (sugars kkdddddddddekeke, PS)",30

# Same assay, conditions: ASO, MM.1R, 1 µM
row,Sequence,target mRNA inhibition
1,"TCGGAGCGACCCAAAT (sugars k3 d10 k3, PS)",12%
2,"CCTCAGTTTGTGAAGC (sugars e1 k2 d9 k2 e2, PS)",11%
3,"GTGTGCTTGCCAAGCC (sugars k2 d9 e3 k2, PS)",75% and 62%
4,"CTTGATAAAGGCTGAA (sugars kkkdddddddddkeke, PS)",24%
5,"GTGATGTCAGGTTTTC (sugars kkdddddddddekeke, PS)",58%
6,"TGATGTGATAGCTGAG (sugars kddddddddddkekek, PS)",18%
7,"TGTGATAGCTGAGCTG (sugars kkdddddddddekeke, PS)",41%
8,"ATATACATTGAGGCAT (sugars k3 d10 k3, PS)",-31%
9,"GTAGTATGAGAAACGG (sugars kkkdddddddddkeke, PS)",15%
10,"CTGTATGGAACCCCAA (sugars k3 d10 k3, PS)",3%
11,"TAGATTCTCCCTGCAC (sugars k3 d10 k3, PS)",18%
12,"GATGGGACCGCCCTGG (sugars k3 d10 k3, PS)",-13%
13,"TTTGAGACTTAACCCA (sugars k3 d10 k3, PS)",31%
14,"TTATGTTAGCCAATTC (sugars kkdddddddddekeke, PS)",9% and 8%

# Same assay, conditions: ASO, MM.1R, 2 µM
row,Sequence,target mRNA inhibition [%]
1,"GTGATGTCAGGTTTTC (sugars kkdddddddddekeke, PS)",59

# Same assay, conditions: ASO, SK-MEL-28, 0.185 µM
row,Sequence,target mRNA inhibition [%]
1,"GTCTGGCTAGCAGAGG (sugars k3 d10 k3, PS)",10

# Same assay, conditions: ASO, SK-MEL-28, 4 µM
row,Sequence,target mRNA inhibition
1,"CGCCACATCAGCAGAC (sugars k3 d10 k3, PS)",12%
2,"GTCTGGCTAGCAGAGG (sugars k3 d10 k3, PS)",66%
3,"ACAGAGCCAACTTATA (sugars k3 d10 k3, PS)",6%
4,"CACAACTGCAGTTTGA (sugars k3 d10 k3, PS)",14%
5,"TTCTAATGGTGCTCCT (sugars k3 d10 k3, PS)",7%
6,"ACACAAGTGGCCTTCC (sugars k3 d10 k3, PS)",31%
7,"ATTTACTGTTACCGAT (sugars k3 d10 k3, PS)",29%
8,"GTAGGTAGGCACCTGT (sugars k3 d10 k3, PS)",75%
9,"CATGAAATCCAAGGTA (sugars k3 d10 k3, PS)",49%
10,"TATAACCGGTAGAGTG (sugars k3 d10 k3, PS)",21%
11,"TGGTAATCTTCTGGAT (sugars k3 d10 k3, PS)",24%
12,"GTCTTTGGGATTCTAT (sugars k3 d10 k3, PS)",65%
13,"TAGCAGAGGTTCTACC (sugars k3 d10 k3, PS)",26%
14,"TCTAATGGTGCTCCTA (sugars k3 d10 k3, PS)",51%
15,"GAGATATAAATAGCTG (sugars k3 d10 k3, PS)",51%
16,"GGAGAATTTGGGCTGG (sugars k3 d10 k3, PS)",75%
17,"CACCCACACAAGTCTT (sugars k4 d8 k4, PS)",14%
18,"ACCATGTTCCTGAAGA (sugars k3 d10 k3, PS)",44%
19,"TTATAACCGGTAGAGT (sugars k3 d10 k3, PS)",38%
20,"TTAAAGAGCGCATTTC (sugars k3 d10 k3, PS)",41%
21,"TTGTTAACAATGTATC (sugars k3 d10 k3, PS)",47%
22,"GTAAGTGATAGGTATA (sugars k3 d10 k3, PS)",76% and 68%
23,"GCTGAATTGTCATGAA (sugars k3 d10 k3, PS)",36%
24,"GGAATTTCCATTGGAG (sugars k3 d10 k3, PS)",44%

# Same assay, conditions: ASO, SK-MEL-28, 5 µM
row,Sequence,target mRNA inhibition [%]
1,"GTCTGGCTAGCAGAGG (sugars k3 d10 k3, PS)",68

# Same assay, conditions: ASO, SK-MEL-28, 15 µM
row,Sequence,target mRNA inhibition [%]
1,"GTCTGGCTAGCAGAGG (sugars k3 d10 k3, PS)",89
